Reference: patent US8895579B2, “Heterotricyclic AMPA receptor antagonists for treatment of epilepsy, pain, and other neurological disorders and diseases” (Northwestern University, priority 2010, dated 2014)
“Also recorded” adds a separate entry of the source.

Columns and labels:
Type in all cases: cell-based
[1] = system: AMPA receptor-mediated EPSCs in primary hippocampal neurons; assay: AMPA receptor EPSC charge transfer during spontaneous synaptic bursts, whole-cell voltage clamp, cultured hippocampal neurons; details: 30 μM
Protocol: (§1) Experiments involving primary hippocampal neurons were carried out as described previously (Vivithanaporn et al., 2007). Dissociated neurons were cultured from E18 prenatal hippocampi and were used for analysis from between 17 and 28 days in vitro. The extracellular solution was the same as used for recombinant receptor analysis, while the internal solution for voltage clamp recordings contained (in mM) 95 CsF, 25 CsCl, 10 Cs-HEPES, 10 EGTA, 2 NaCl, 2 Mg-ATP, 10 QX-314, 5 TEA. and 5 4-AP (pH 7.3) and the internal solution for current clamp recordings contained (in mM) 120 KMeSO4, 5 KCl, 5 NaCl, 1 MgCl2, 11 Na-HEPES, 10 phosphocreatine, 4 Na-ATP, and 0.3 Na-GTP (pH 7.0). Borosilicate patch electrodes were pulled and fire polished to 3-5 MΩ resistance. Both whole cell current clamp and voltage clamp recordings were performed using an Axopatch 200B amplifier (MDS, Sunnyvale, Calif.) and filtered at 20 kHz. Gigaohm seals were established in voltage clamp mode and, after membrane rupture, the recordings were carried out either in voltage clamp (clamped at Vm=−70 mV) with a […] series resistance, which was compensated to ˜60%, or in current clamp mode ([…]) with the bridge balance was corrected and pipette resistance neutralized. In vitro status epilepticus (SE) was induced as described previously (Deshpande et al., 2007; Pal et al., 1999) and action potentials were recorded in current clamp mode. Briefly for in vitro SE, magnesium-containing external solution was exchanged for external solution without magnesium and supplemented with 2 μM glycine. This solution exchange produced a period of rapid depolarization and increased AP firing, followed by a period of channel inactivation and reduced AP firing. After channel inactivation, neurons characteristically would hyperpolarize to hold at a membrane voltage (Vm) which was depolarized relative to control Vm, with an increase in AP firing frequency. […] External solutions were bath-applied at a flow rate of 1.5-2 ml/minute. After recording a basal control period, IKM compounds were applied for five minutes (10 minutes for in vitro SE experiments) and changes in excitatory post-synaptic current (EPSC) charge transfer or action potential (AP) frequency were analyzed during the last two minutes of IKM application.
We first measured the actions of the IKM compounds on the charge transfer during spontaneously occurring, polysynaptic bursts of AMPA receptor excitatory post-synaptic currents (EPSCs) in cultured hippocampal neurons (recorded in the presence of bicuculline methiodide and picrotoxin to inhibit GABAA receptors and D-APV to inhibit NMDA receptors). […] IKM-159 had the greatest inhibitory effect at a fixed concentration of 30 μM, producing a reduction in charge transfer of 65±5% (n=6, p<0.01). […] Despite the polar chemical nature of the compounds, recoveries to basal EPSC charge transfers were minimal.

[2] = target: T1, kainate receptor EPSCs, CA3 pyramidal neurons (Mus musculus, UniProt P39087+Q61626+Q8BMF5); assay: Kainate receptor EPSCs at mossy fiber-CA3 synapses, acute hippocampal slices; details: 20 μM
T1 construct: whole-cell voltage clamp recording from mouse acute brain slices; from tissue; host or cells: acute hippocampal slices, P15-21 C57Bl/6 mice, CA3 pyramidal neurons
Protocol: For recordings from acute hippocampal slices, brains from P15-21 C57Bl/6 mice were sliced transversely (350 μm thickness) in a sucrose slicing solution containing (in mM) 85 NACl, 2.5 KCl, 1.25 NaH2PO4, 25 NaHCO3, 25 glucose, 75 sucrose, 0.5 CaCl2, 4 MgCl2, 0.5 Na ascorbate, 10 μM DL-APV and 100 μM kynurenic acid (pH 7.3). After slicing, the solution was exchanged with an incubation solution containing (in mM) 125 NaCl, 2.4 KCl, 1.2 NaH2PO4, 25 NaHCO3, 25 glucose: 1 CaCl2, 2 MgCl2, 0.5 Na ascorbate, 10 μM DL-APV and 100 μM kynurenic acid (pH 7.3) that was bubbled continuously with CO2-balanced O2 (carbogen). […] Recordings in voltage clamp mode used the CsF/CsCl internal solution and carbogenated external recording solution containing (in mM) 120 NaCl, 2.4 KCl, 2 MgCl2, 1 CaCl2, 25 NaHCO3, 1.2 NaH2PO4, 25 glucose, 10 μM bicuculline methiodide, 50 μM PTX and 50 μM D-APV (pH 7.3). […] NMDA EPSCs were validated by addition of D-APV (50 μM) at the end of each recording. […] IKM compounds were applied for 10 minutes and changes in the peak amplitudes of excitatory post-synaptic currents (EPSCs) and paired-pulse ratios were analyzed during the last two minutes of drug application. EPSC charge transfer, AP frequency, paired-pulse ratio and EPSC peak amplitude were analyzed with Mini-Analysis v6.03 (Synaptosoft, Decatur, Ga.) and Clampfit v10.0 (MDS, Sunnyvale, Calif.) software.

[3] = system: primary hippocampal neurons; assay: Spontaneous action potential firing, current clamp, cultured hippocampal neurons; details: 20 μM
Protocol: as §1
Effects of IKM-159 on neuronal excitability. […] To determine if altered neuronal excitability could contribute to this behavioral phenotype, we examined the effect of IKM-86 and IKM-159 on action potential firing in cultured hippocampal neurons. Spontaneous action potentials were recorded in current-clamp mode before, during and after application of 20 μM IKM-86 and IKM-159. […]

T1 sequence (P39087 32-908): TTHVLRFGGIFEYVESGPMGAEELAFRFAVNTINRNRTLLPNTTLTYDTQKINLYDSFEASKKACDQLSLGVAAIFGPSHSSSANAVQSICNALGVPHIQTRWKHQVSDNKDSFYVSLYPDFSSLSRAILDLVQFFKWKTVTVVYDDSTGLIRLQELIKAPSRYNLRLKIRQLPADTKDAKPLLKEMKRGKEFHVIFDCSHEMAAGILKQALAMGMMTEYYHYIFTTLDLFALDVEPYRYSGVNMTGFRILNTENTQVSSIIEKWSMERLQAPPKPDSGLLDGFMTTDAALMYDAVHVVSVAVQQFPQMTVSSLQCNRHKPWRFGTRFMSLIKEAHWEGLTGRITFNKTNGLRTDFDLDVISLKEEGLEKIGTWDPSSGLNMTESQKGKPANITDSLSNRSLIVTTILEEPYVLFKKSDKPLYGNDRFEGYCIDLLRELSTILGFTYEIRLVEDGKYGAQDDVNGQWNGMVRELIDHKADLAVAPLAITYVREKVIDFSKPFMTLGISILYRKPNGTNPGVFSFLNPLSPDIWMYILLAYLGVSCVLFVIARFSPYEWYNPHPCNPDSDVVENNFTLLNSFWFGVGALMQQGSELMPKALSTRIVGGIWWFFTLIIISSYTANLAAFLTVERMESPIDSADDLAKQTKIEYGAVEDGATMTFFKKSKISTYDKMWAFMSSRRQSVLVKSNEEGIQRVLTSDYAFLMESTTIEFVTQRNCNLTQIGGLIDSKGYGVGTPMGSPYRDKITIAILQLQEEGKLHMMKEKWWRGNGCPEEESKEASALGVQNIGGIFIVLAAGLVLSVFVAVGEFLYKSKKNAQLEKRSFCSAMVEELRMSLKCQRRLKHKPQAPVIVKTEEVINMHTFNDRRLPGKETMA
T1 sequence (Q8BMF5 21-956): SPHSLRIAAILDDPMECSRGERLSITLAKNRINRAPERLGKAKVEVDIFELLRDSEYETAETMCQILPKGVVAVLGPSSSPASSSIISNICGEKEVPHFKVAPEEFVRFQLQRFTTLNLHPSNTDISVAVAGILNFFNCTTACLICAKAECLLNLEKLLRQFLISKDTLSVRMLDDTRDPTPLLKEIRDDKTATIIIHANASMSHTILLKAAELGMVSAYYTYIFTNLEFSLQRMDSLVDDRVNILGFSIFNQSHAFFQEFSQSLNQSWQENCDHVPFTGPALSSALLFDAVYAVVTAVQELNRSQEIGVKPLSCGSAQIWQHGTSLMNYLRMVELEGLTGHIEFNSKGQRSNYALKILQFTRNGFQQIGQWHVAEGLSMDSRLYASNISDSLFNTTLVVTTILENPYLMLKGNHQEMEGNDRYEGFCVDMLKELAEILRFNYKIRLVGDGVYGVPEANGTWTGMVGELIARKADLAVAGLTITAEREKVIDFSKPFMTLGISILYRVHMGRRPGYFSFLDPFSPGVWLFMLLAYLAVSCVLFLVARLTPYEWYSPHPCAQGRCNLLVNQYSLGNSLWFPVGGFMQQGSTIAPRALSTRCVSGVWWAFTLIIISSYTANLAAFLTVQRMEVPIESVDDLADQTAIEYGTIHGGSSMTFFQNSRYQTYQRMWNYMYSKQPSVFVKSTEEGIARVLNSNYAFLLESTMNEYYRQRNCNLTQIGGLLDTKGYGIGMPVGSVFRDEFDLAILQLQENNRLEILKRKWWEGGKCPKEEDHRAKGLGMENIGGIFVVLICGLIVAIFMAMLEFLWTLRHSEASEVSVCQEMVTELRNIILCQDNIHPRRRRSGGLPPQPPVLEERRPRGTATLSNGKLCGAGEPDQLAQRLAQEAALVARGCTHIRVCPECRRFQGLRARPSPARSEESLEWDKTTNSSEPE
T1 sequence (Q61626 15-979): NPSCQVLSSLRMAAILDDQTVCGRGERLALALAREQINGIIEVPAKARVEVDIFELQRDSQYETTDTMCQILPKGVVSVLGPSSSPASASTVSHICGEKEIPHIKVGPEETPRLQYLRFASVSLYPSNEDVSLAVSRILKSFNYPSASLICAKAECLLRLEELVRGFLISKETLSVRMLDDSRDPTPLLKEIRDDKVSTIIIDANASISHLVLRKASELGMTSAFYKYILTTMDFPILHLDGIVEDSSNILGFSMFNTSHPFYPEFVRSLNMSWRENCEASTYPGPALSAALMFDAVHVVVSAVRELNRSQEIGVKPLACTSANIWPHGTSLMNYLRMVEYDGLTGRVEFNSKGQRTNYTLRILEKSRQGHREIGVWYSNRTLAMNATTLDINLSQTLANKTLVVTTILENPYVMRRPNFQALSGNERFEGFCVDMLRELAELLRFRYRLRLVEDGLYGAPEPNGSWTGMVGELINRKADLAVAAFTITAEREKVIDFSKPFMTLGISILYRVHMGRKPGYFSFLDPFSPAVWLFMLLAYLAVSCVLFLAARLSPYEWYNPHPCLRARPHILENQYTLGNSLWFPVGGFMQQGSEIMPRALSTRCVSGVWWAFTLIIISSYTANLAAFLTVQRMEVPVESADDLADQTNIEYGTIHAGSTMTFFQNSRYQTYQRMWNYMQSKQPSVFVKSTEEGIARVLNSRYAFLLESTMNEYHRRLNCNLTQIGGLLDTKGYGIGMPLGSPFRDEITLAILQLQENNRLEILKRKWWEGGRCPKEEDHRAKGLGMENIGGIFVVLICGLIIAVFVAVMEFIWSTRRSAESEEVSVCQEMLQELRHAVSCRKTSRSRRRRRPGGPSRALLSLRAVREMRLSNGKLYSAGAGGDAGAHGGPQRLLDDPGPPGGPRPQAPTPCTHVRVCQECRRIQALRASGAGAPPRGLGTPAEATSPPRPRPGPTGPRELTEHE

## O=C(O)C[C@@]12O[C@H]3C=CCN[C@H]3C1CN[C@H]2C(=O)O (some centres unmarked) [IKM-159]
[1]
  reduction from control charge transfer: 65±5%
[1]; voltage clamped at −70 mV
  charge transfer during bursts of AMPA receptor-mediated synaptic events as a percent of the charge transfer during the control period: 35±5%
[2]
  effect on kainate receptor EPSC peak amplitude: did not alter the mean amplitude; also recorded: did not alter the typical run-down in amplitude
[3]
  persistence of reduction in action potential firing frequency after removal of compound: prolonged
[3]; basal (spontaneous) firing
  action potential firing frequency in presence of compound: 0.5±0.04 Hz
